Data on one compound can be found in patent publication US20190000789A1, “COMPOSITION AND METHOD FOR TREATING INFECTIONS CAUSED BY VANCOMYCIN-RESISTANT INFECTIOUS AGENTS IN A SUBJECT” (priority 2015, published 2019).

Experiment [1] relates to S. coelicolor M145 ΔvanX (LAG3). Description: MIC of vancomycin on MM agar plates with added D-Ala. It counts as cell-based, Streptomyces coelicolor. The note with it: Streptomyces coelicolor. From the text: (§1) VanX effectively eradicates the D-Ala-D-Ala dipeptide, thereby counteracting the accumulation of wild-type precursors and supporting vancomycin resistance (Lessard and Walsh, 1999; Tan et al., 2002). Therefore, a vanX null mutant was created using a similar strategy as for ddl, replacing the coding region of vanX by the apramycin resistance cassette aacC4. The mutant was created in both the parental strain S. coelicolor M145 and in its ddl suppressor mutant LAG2, generating LAG3 (M145 ΔvanX) and LAG4 (M145 Δddl ΔvanX vanS::IS466A), respectively.
(§2) LAG4 produced 20% wt precursors prior to the addition of D-Ala.
(§3) Escherichia coli strains JM109 (Sambrook et al., 1989) and ET12567 (Kieser et al., 2000) were used for routine cloning procedures and for extracting non-methylated DNA, respectively. Cells of E. coli were grown in Luria-Berani broth (LB) at 37° C. Streptomyces coelicolor A3(2) M145 was the parent of all mutants described in this work. All media and routine Streptomyces techniques were carried out as described (Kieser et al., 2000). SFM (soy flour mannitol) agar plates were used for propagating S. coelicolor strains and to prepare spore suspensions. For liquid-grown cultures, S. coelicolor mycelia were grown in normal minimal media with phosphate (NMMP) supplemented with 1% (w/v) mannitol as the sole carbon source. The MIC of vancomycin against S. coelicolor M145 and its mutant derivatives were determined by growth on minimal media (MM) agar plates supplemented with 1% mannitol as the sole carbon source, and 0, 2, 4, 8, 16, 32, 64, 128, 256 or 512 μg/ml vancomycin, in combination with 0, 1, 5, 10 or 50 mM of D-Ala or L-Ala. The vanX deletion mutants have been tested with 1, 5, 10, 50 and 100 μM D-Ala and L-Ala.

Experiment [2] relates to S. coelicolor LAG1 (ddl null mutant). The experiment is described as follows: LC-MS analysis of peptidoglycan precursors. Format: cell-based, Streptomyces coelicolor. To be noted: LAG1 grown in the presence of vancomycin. The protocol: (§4) In order to get more insights into the synthesis of vancomycin-sensitive (i.e., wild-type) or the alternate vancomycin-resistant peptidoglycan, the pool of peptidoglycan precursors was analyzed by Liquid Chromatography coupled to Mass Spectrometry (LC-MS). When cells produce wild-type PG, only the MurNac-pentapeptide with a D-Ala-D-Ala terminus are detected, while vancomycin-resistant PG precursors have a D-Ala-D-Lac terminus. To analyze the precursors produced in S. coelicolor M145 and its mutant derivatives LAG1 (Δddl) and LAG2 (Δddl vanS::IS466A) in the presence or absence of vancomycin, the strains were grown until exponential phase, after which the cultures were harvested, washed and the precursors extracted with 5% TCA. The supernatants were desalted, concentrated and analyzed by LC-MS (see Materials and Methods section).
(§5) For the precursor isolation and identification, a modification of the method described previously by Hong and colleagues (Hong et al., 2004) was used. 10 μg vancomycin was added to the strains at the moment of inoculation. The strains were grown in NMMP (1% (w/v) Mannitol, 50 mM MgCl2) until mid-log phase (OD-0.3-0.4) and mycelia were harvested by centrifugation at 4° C. and washed in 0.9% NaCl. […] The elution was monitored at 254 nm and monitored by the sizes eluted (1193.8-1195.3).

In experiment [3] the test system is S. coelicolor M145. The experiment is described as follows: LC-MS analysis of peptidoglycan precursors. It counts as cell-based, Streptomyces coelicolor. The note with it: M145 grown with 10 μg/ml vancomycin. The protocol:
as §4, §5

Experiment [4] relates to S. coelicolor LAG2 (ddl suppressor mutant). The experiment is described as follows: MIC of vancomycin on MM agar plates with added D-Ala or L-Ala. Format: cell-based, Streptomyces coelicolor. To be noted: Streptomyces coelicolor. The protocol: VanS is the sensory kinase of a two-component system formed with VanR, and it has been shown previously that certain mutations in vanS will constitutively upregulate the vancomycin resistance cluster, explaining the viability of strain LAG2 in the absence of vancomycin.
as §3

Experiment [5] deals with S. coelicolor M145. The experiment is described as above. To be noted: for MIC: Streptomyces coelicolor. Format: cell-based, Streptomyces coelicolor. The protocol: The naturally vancomycin-resistant model organism S. coelicolor M145 was used as the initial test system. The strain was grown on solid minimal medium (MM) agar plates with increasing amounts of D-Ala and vancomycin. D-Ala was thereby added in concentrations of 5, 10 and 50 mM and the effect on the MIC of vancomycin assessed. As a first control, L-Ala was added and, as a second control, no amino acids were added. […] This was not altered when the culture media were supplemented with up to 50 mg/ml L-Ala (Table 1 and FIG. 6).
as §3

For experiment [6], the system named is S. coelicolor LAG2 ΔvanX (LAG4). The experiment is described as follows: MIC of vancomycin on MM agar plates with added D-Ala. To be noted: Streptomyces coelicolor. It counts as cell-based.
From the text: as §1, §2, §3

Read-outs that look alike come from different tables or passages of the source.

In the case of `CN[C@H](CC(C)C)C(=O)N[C@H]1C(=O)N[C@@H](CC(N)=O)C(=O)N[C@H]2C(=O)N[C@H]3C(=O)N[C@H](C(=O)N[C@H](C(=O)O)c4cc(O)cc(O)c4-c4cc3ccc4O)[C@H](O)c3ccc(c(Cl)c3)Oc3cc2cc(c3O[C@@H]2O[C@H](CO)[C@@H](O)[C@H](O)[C@H]2O[C@H]2C[C@](C)(N)[C@H](O)[C@H](C)O2)Oc2ccc(cc2Cl)[C@H]1O` [vancomycin], the MIC was found to be 32 µg/mL in experiment [1] (read-out: MIC of vancomycin, M145 ΔvanX, 0 μM D-Ala); 16 µg/mL in experiment [1] (read-out: MIC of vancomycin, M145 ΔvanX, 10 μM D-Ala); 1 µg/mL in experiment [1] (read-out: MIC of vancomycin, M145 ΔvanX, 50 μM D-Ala); 1 µg/mL in experiment [1] (read-out: MIC of vancomycin, M145 ΔvanX, 50 μg/ml D-Ala); 1 µg/mL in experiment [1] (read-out: MIC of vancomycin, M145 ΔvanX, 100 μM D-Ala); 128 µg/mL in experiment [4] (LAG2, 0 mM D-Ala). In addition, the MIC in experiment [4] (LAG2, 5 mM D-Ala) was 64 µg/mL; in experiment [4] (LAG2, 10 mM D-Ala), 32 µg/mL; in experiment [4] (LAG2, 50 mM D-Ala), 4 µg/mL; in the experiment with S. coelicolor M145 [5] (M145, read-out: MIC of vancomycin, M145, 0 mM D-Ala), 128 µg/mL; in the experiment with S. coelicolor M145 [5] (M145, read-out: MIC of vancomycin, M145, 5 mM D-Ala), 32 µg/mL; with S. coelicolor M145 [5] (M145, read-out: MIC of vancomycin, M145, 10 mM D-Ala), 32 µg/mL. Also, the MIC stood at 4 µg/mL in the experiment on S. coelicolor M145 [5] (M145, read-out: MIC of vancomycin, M145, 50 mM D-Ala); 64 µg/mL in experiment [6] (read-out: MIC of vancomycin, LAG2 ΔvanX, 0 μM D-Ala); 32 µg/mL in experiment [6] (read-out: MIC of vancomycin, LAG2 ΔvanX, 10 μM D-Ala); 8 µg/mL in experiment [6] (read-out: MIC of vancomycin, LAG2 ΔvanX, 50 μM D-Ala); 2 µg/mL in experiment [6] (read-out: MIC of vancomycin, LAG2 ΔvanX, 100 μM D-Ala). Besides, in experiment [2], the “precursors containing the terminal D-Ala-D-Lac dipeptide” value was found to be 95.7%. For the same compound, the “precursors of the vancomycin-insensitive variant (D-Ala-D-Lac)” value in the experiment with S. coelicolor M145 [3] stood at 91.5%. In addition, the “reduction of the MIC of vancomycin” value in the experiment with S. coelicolor M145 [5] (M145, 10 mM D-Ala) was found to be 4 fold; with S. coelicolor M145 [5] (M145, 50 mM D-Ala) it was 32 fold.
